Patent publication US12140559B2, “Cell analysis using ChemFET sensor array-based systems” (LIFE TECHNOLOGIES CORPORATION, priority 2018, dated 2024)
Read-outs that look alike come from different tables or passages of the source.

What was measured:
HEPG2 cells = conditions: 100 μM; seen for some cells (CHEPG1, CHEPG2), not all (CHEPG3)
Description: The HEPG2 cells were resuspended at 1×10^6 cells per mL and plated onto chips for overnight incubation in a cell culture incubator to allow the cells to adhere to the prepared surface of the chip.

MMM cells = MMM cells tested individually on separate device
Text: (§1) For the experiments for which data is presented in FIG. 13A through FIG. 13C, three distinct cell types were chosen to test for the ability of the instrument to discriminate cell type based on response to FCCP. To generate the data set comparing widely varying cell types, donor-derived primary human aortic smooth muscle (HASM) cells (HASMC; Gibco cat# C0075C), human cervical cancer cells (HeLa cells; ATCC catalogue number CRM CCL 2) and a mouse-derived […] cell line (MMM cells; ATCC catalogue number J774A.1) were selected for the study.
(§2) FIG. 13A through FIG. 13C are average background-subtracted temporal dose-responses curves for each type of cell line tested individually on separate devices. FIG. 13A is set of dose-response curves for HASM cells, FIG. 13B is a set of dose-response curves for HeLa cells, and FIG. 13C is a set of dose-response curves for MMM cells. For the data shown in FIG. 14A through FIG. 14C, a mixture of the cells were exposed to 100 μM FCCP and their responses recorded in order to understand whether or not the different cell types could be identified by their response to FCCP. FIG. 14A illustrates composite temporal dose-response curves for selected cells in a mixture of different cell types in which the cells were subjected to FCCP. FIG. 14B is an electroscopic image of the experiment of FIG. 14A taken at a time corresponding to frame 40 (2.7 seconds), in which squares within the cells indicate the pixels that were sampled for the data of FIG. 14A. FIG. 14C is the electroscopic image of FIG. 14B for which the squares within the cells in […] have removed to provide a clear image of the cells.
(§3) The sensor array devices used in experiments from which data for FIG. 13A though FIG. 14C was generated was a Chip 2 device of FIG. 3, selective for sensing hydrogen ion, and included a microwell array.

HeLa cells = HeLa cells tested individually on separate device
Text: as §1, §2, §3

HASM cells = HASM cells tested individually on separate device
Text: as §1, §2, §3

U-2OS cells = conditions: series of concentration jumps
Text: FIG. 12A illustrates averaged background-subtracted temporal dose-response curves for U-2OS cells treated with FCCP. FIG. 12B illustrates averaged background-subtracted temporal dose-response curves for U-2OS cells pretreated with a nutrient solution containing oligomycin before being treated with FCCP.
Both Chip 1 and Chip 2 devices were ISFET devices selective for sensing hydrogen ion, and included a microwell array. […] The U-2OS cells were resuspended at 1×10^6 cells per mL and plated onto chips for overnight incubation in a cell culture incubator to allow the cells to adhere to the prepared surface of the chip. To test for dose-dependence of the FCCP treatment, cells were exposed to a series of concentration jumps during the experiment as indicated in FIGS. 12A and FIG. 12B. In FIG. 12A, experiments were carried out in the absence of oligomycin, and in 12B, the FCCP dose-response curve was generated in the presence of oligomycin.
The data in FIG. 12A and FIG. 12B are composed of averaged cellular responses from samples tested with FCCP.

[1] = test system: voltage-gated calcium ion channels; assay: ChemFET sensor array: 30 mM KCl depolarizing stimulus in presence of calcium channel blocker, control vs transfected U-2OS cells; format: cell-based; conditions: 10 μM, U-2OS control cells vs U-2OS transfected with voltage-gated calcium channel alpha, beta and alpha-2-delta subunits
Text: FIG. 9A illustrates temporal response curves for U-2OS cells (C1 and C2) and U-2OS cells transfected with voltage-gated calcium channel alpha, beta and alpha-2-delta subunits (C3 and C4). The temporal response curves presented in FIG. 9A represent data collected over an area of interest for the U-2OS cells in comparison to transfected U-2OS cells, in which the impact of cell response for each type of cell treated with the calcium ion channel blocker verapamil was monitored through a cycle of an initial state of resting potential, followed by conditions for depolarization of membrane potential, and return to resting potential.
Briefly, the sensor array device surface was soaked for 30 minutes with 70% ethanol in water, then rinsed with PBS before adding a solution of 0.1% poly-D-lysine, which was allowed to sit for two hours. The device was then rinsed twice with 200 μL of a cell culture medium, for example, McCoy's 5A modified medium with 10% fetal calf serum. After rinsing with the cell culture medium, the devices were ready for plating with a cell suspension.
Preparation of transfected cells was done using a cell suspension of 1×10^6 cells per mL. Mammalianized BacMam gene delivery particles encoding a mixture of voltage-gated calcium ion channel alpha, beta and alpha-2-delta subunits was added to the cell suspension to reconstitute functional channels. […]

| Compound | cellular response observed during application (electroscopic image) (HEPG2 cells) | temporal response to FCCP (MMM cells) | temporal response to FCCP (HeLa cells) | temporal response to FCCP (HASM cells) | averaged cellular temporal response (U-2OS cells; absence of oligomycin) | averaged cellular temporal response (U-2OS cells; presence of oligomycin (pretreatment)) | activity of blocker on temporal response to depolarizing stimulus [1] |
| --- | --- | --- | --- | --- | --- | --- | --- |
| N#CC(C#N)=NNc1ccc(OC(F)(F)F)cc1 [FCCP, carbonyl cyanide-4-(trifluoromethoxy)phenylhydrazone] | efflux of cellular contents | distinct kinetic and amplitude response | distinct kinetic and amplitude response | distinct kinetic and amplitude response | dose-dependent FCCP responses | dose-dependent FCCP responses |  |
| COc1ccc(CCN(C)CCCC(C#N)(c2ccc(OC)c(OC)c2)C(C)C)cc1OC (stereo not shown) [verapamil] |  |  |  |  |  |  | selective activity of a blocker on cultures that express the target protein |
